From patent US4902675A, “"2-pyridyl and 4-pyridyl phosphine gold (I) anti tumor complexes"” (SmithKline Beckman Corporation, priority 1986, dated 1990)
Several values for one entry are separate records, joined by “and”; a condition that tells them apart may be missing. Identical values can stand only once.

Experiments:
[1] = literature, Struck et al. 1966; cited from earlier work
P388 leukemia = assay: in vivo ip P388 lymphocytic leukemia mouse model, increase in lifespan; conditions: mice bearing ip P388 leukemia; ip Days 1 through 5; figures separated by slashes are data from separate experiments; active if ≥25 percent ILS
Source text: P388 lymphocytic leukemia is currently the most widely used animal tumor model for screening for antitumor agents and for detailed evaluation of active compounds. This tumor system is widely accepted as an antitumor agent screening tool because it is sensitive to virtually all of the clinically active antineoplastic agents; quantitative and reproducible; amenable for large-scale screening; and predictive for activity in other animal tumor models.
10^6 P388 leukemia cells are inoculated ip in B6D2F1 mice. Twenty-four hours later, if the tumor inoculum proves to be free of bacterial contamination (as determined by 24 hours incubation in thioglycollate broth), animals are randomized into groups of 6 and housed in shoebox cages. The compound to be evaluated is dissolved in a minimal volume of either N,N-dimethylacetamide (DMA) or 95% ethanol (depending upon solubility). An equal volume of saline is added; if the drug comes out of solution an equal volume of polyethoxylated castor oil is added and then saline qs to a concentration such that the desired dose is delivered in 0.5 ml. The final concentration of DMA, ethanol and polyethoxylated castor oil is […]. Dilutions for lower doses are made with saline so there is a decreasing proportion of organic solvents in the vehicle with decreasing dosage. These vehicles provide soluble formulations (or suspensions). Formulations are prepared immediately prior to injection. The compound is administered ip on Days 1 through 5 (i.e. treatment is initiated 24 hrs after tumor inoculation). Each experiment includes three groups of 6 animals as untreated controls and animals treated with a positive control, cisplatin, at two dose levels. Animals are weighed as a group on Days 1, 5 and 9 and average weight change (Δ wt.) is used as a reflection of toxicity. Each experiment also includes an inoculum titration-groups of 8 mice inoculated ip with 10^5 to 10^0 P388 leukemia cells. The titration is used to calculate cell kill achieved by treatment with drugs. Animals are monitored daily for mortality and experiments are terminated after 45 days. […]

[2] = maximally tolerated dose for female mice, ip qDX5 (P388 study); type: in vivo, mouse; conditions: B62DF female mice, ip qDX5 regimen
Description: 10^6 P388 leukemia cells are inoculated ip in B6D2F1 mice. Twenty-four hours later, if the tumor inoculum proves to be free of bacterial contamination (as determined by 24 hours incubation in thioglycollate broth), animals are randomized into groups of 6 and housed in shoebox cages. The compound to be evaluated is dissolved in a minimal volume of either N,N-dimethylacetamide (DMA) or 95% ethanol (depending upon solubility). An equal volume of saline is added; if the drug comes out of solution an equal volume of polyethoxylated castor oil is added and then saline qs to a concentration such that the desired dose is delivered in 0.5 ml. The final concentration of DMA, ethanol and polyethoxylated castor oil is […]. Dilutions for lower doses are made with saline so there is a decreasing proportion of organic solvents in the vehicle with decreasing dosage. These vehicles provide soluble formulations (or suspensions). Formulations are prepared immediately prior to injection. The compound is administered ip on Days 1 through 5 (i.e. treatment is initiated 24 hrs after tumor inoculation). Each experiment includes three groups of 6 animals as untreated controls and animals treated with a positive control, cisplatin, at two dose levels. Animals are weighed as a group on Days 1, 5 and 9 and average weight change (Δ wt.) is used as a reflection of toxicity. Each experiment also includes an inoculum titration-groups of 8 mice inoculated ip with 10^5 to 10^0 P388 leukemia cells. The titration is used to calculate cell kill achieved by treatment with drugs. Animals are monitored daily for mortality and experiments are terminated after 45 days. The endpoint is median survival time (MST) and increase in lifespan (ILS) which is the percentage of increase in MST relative to untreated controls. Untreated controls inoculated ip with 10^6 P388 leukemia cells generally survive for a median of 9 to 11 days. A drug is considered active if it produces ≥25 percent ILS.
^(a) maximally tolerated dose for […] female mice on an ip qDX5

B16 melanoma = assay: in vivo ip B16 melanoma assay, increase in lifespan; set-up: species or system mouse; conditions: mice bearing ip B16 melanoma; ip qD × 9; ILS ≥25% indicates activity
Description: (§1) In this system, groups of eight B6D2F1 mice are inoculated ip with 0.5 ml of a 10% (w:v) brei of B16 melanoma prepared from pooled sc tumors excised at 14-21 days from […] donor mice. Daily treatment is begun 24 hours after tumor impantation and is continued daily for ten (10) days. The route of drug administration is ip. The mice are monitored daily for survival for sixty (60) days. Antitumor activity is assessed by prolongation of median survival time. An ILS of≥25% indicates activity in this tumor model.
(§2) ^(b) maximally tolerated dose for B6D2F1 mice on an ipqD ×
(§3) 9 regimen (Regimen is preferably qD × 10 but supply of Compound No.
(§4) 3 was extinguished on day 9).
^(c) maximum increase in lifespan produced in mice bearing ip B16

[3] = maximally tolerated dose for B6D2F1 mice, ip qD × 9 (B16 study); type: in vivo, mouse; conditions: ip qD × 9 regimen
Description: as §1, §2, §3, §4

Q: Which cytotoxic activity [1] does the source give for `c1ccc(P(CCP(c2ccccc2)c2ccccc2)c2ccccc2)cc1` [1,2-bis(diphenylphosphino)ethane] here?
A: cytotoxic activity

Q: Which “ILS (max), maximum increase in lifespan” value (P388 leukemia) does the source give for `[Cl][Au][PH](CC[PH]([Au][Cl])(c1ccccn1)c1ccccn1)(c1ccccn1)c1ccccn1` [Compound 1, μ-[1,2-Bis(di-2-pyridylphosphino)ethane]bis(chlorogold)] here?
A: 55% and 60%

Q: And the “MTD, maximally tolerated dose” value [2]?
A: 6 mg/kg

Q: With `[Cl][Au][PH](CC[PH]([Au][Cl])(c1ccncc1)c1ccncc1)(c1ccncc1)c1ccncc1` [Compound 2, μ-[1,2-Bis(di-4-pyridylphosphino)ethane]bis(chlorogold)] as the compound, how does the “MTD, maximally tolerated dose” value [2] read?
A: 12 mg/kg

Q: Which results are given for `[Au+].[Cl-].c1ccc(P(CCP(c2ccccn2)c2ccccn2)c2ccccn2)nc1.c1ccc(P(CCP(c2ccccn2)c2ccccn2)c2ccccn2)nc1` [Compound 3, Chlorobis[1,2-bis(di-2-pyridylphosphino)ethane]gold]?
A: ILS (max), maximum increase in lifespan (P388 leukemia): 80% and 75% and 83% and 84%; MTD, maximally tolerated dose [2]: 8 mg/kg; ILS, maximum increase in lifespan (B16 melanoma): 43%; MTD, maximally tolerated dose [3]: 10 mg/kg

Q: Which results are given for `OCC1OC([S][Au][PH](CC[PH]([Au][S]C2OC(CO)C(O)C(O)C2O)(c2ccccn2)c2ccccn2)(c2ccccn2)c2ccccn2)C(O)C(O)C1O` (stereo not shown) [Compound 4]?
A: ILS (max), maximum increase in lifespan (P388 leukemia): 85% and 53% and 56%; MTD, maximally tolerated dose [2]: 8 mg/kg
